Values quoted from earlier work in patent US20040028772A1, “Method for preparation of chewing gum with customer acceptable taste” (priority 2000, published 2004).
Where a name gives a salt, the structure may show the parent alone.

SMILES	water solubility (in words)	water-soluble / solubility in water
CC1=C(/C=C/C(C)=C/C=C/C(C)=C/CO)C(C)(C)CCC1 [A-vitamin]	not water-soluble	–
CC(=O)O.CC(=O)O.NC(=N\CCCCCC/N=C(N)/N=C(\N)Nc1ccc(Cl)cc1)/N=C(\N)Nc1ccc(Cl)cc1 [Chlorhexidine diacetate]	–	1.9 g/100 ml
N=C(NCCCCCCNC(=N)NC(=N)Nc1ccc(Cl)cc1)NC(=N)Nc1ccc(Cl)cc1.O=C(O)[C@H](O)[C@@H](O)[C@H](O)[C@H](O)CO.O=C(O)[C@H](O)[C@@H](O)[C@H](O)[C@H](O)CO [Chlorhexidine digluconat]	mixable	–
[H]/N=C(\N/C(=N/[H])NCCCCCCNC(=N)NC(=N)Nc1ccc(Cl)cc1)Nc1ccc(Cl)cc1 [Chlorhexidine dihydrochloride]	–	0.06 g/100 ml
Clc1ccc(COC(Cn2ccnc2)c2ccc(Cl)cc2Cl)c(Cl)c1 (stereo not shown) [Miconazol]	–	< 0.001 g/100 ml
C[C@]12CC[C@H]3[C@@H](CCC4=CC(=O)CC[C@@H]43)[C@@H]1CC[C@@H]2O [nandrolone]	heavily soluble	–
CC(=O)Nc1ccc(O)cc1 [paracetamol]	–	1.4 g/100 ml
